Measured values published in patent US20130123618A1, “Imaging Agents” (priority 2008, published 2013).

Columns and labels:
tumor cells = experiment: overall conclusion of uptake studies in cancer cells in vitro; format: cell-based
Protocol: In the in vitro studies the uptake rate of each amino acid compound is measured in each tumor line, as well as the dominant transport mechanisms of each tumor cell line. After trypsinization, cells are resuspended in serum-free media, then counted on a hemocytometer, with viability assessed through Trypan blue staining. Approximately 1×10^7 cells are exposed to each compound (15 μCi) in 15 ml of amino acid free media for 5, 10, 15, 30 and 60 minutes at 37° C. Cells are then centrifuged at 150×g for 5 minutes, rinsed in 5 ml cold-saline, recentrifuged, resuspended in 3 ml saline, and placed into 12×75 mm glass vials (Fisher, Pittsburgh, Pa.). The vials are placed in a Cobra-II gamma counter (Packard, Meriden, Conn.), with the activity per cell number determined. Inhibition studies determine the dominant transport mechanism (L, A or ASC) for each line [Martarello et al. (2002) supra; McConathy et al. (2003) supra]. For these studies, cells are exposed to the compounds for 30 minutes in amino acid free media containing one of three inhibitors (2-amino-norbornyl-2-carboxylic acid (BCH), 10 mM; α-(methylamino)-isobutyric acid (MeAlB), 10 mM; and an alanine-serine-cysteine mixture 1:1:1 (acs), 10 mM). Saline washes are performed as described above, and the filtered cells' radioactivity determined on the gamma counter. Comparisons with the 30 minute control uptake indicate the major transporters used. Results of these studies are found in FIGS. 1-18.
Approximately 10^6 cells were exposed to the [^18F]amino acid candidate (5 μCi) in 3 ml of amino acid-free media±transporter inhibitors (10 mM) for 30 minutes under incubation conditions by the method previously described (McConathy, J.; Martarello, L.; Malveaux, E.; Camp, V.; Bowers, G.; Olson, J.; Goodman, M. (2002) Radiolabeled amino acids for tumor imaging with PET: radiosynthesis and biological evaluation of [^18F]2-amino-3-fluoro-2-methylpropanoic acid and [^18F]3-fluoro-2-methyl-2-(methylamino)-propanoic acid. J. Med. Chem. 45, 2240-2249). The inhibition studies determined the dominant transport mechanism (L, A) for each candidate PET amino acid for each tumor model. 2-Methylaminoisobutyric acid (MeAlB) and 2-aminobicyclo-[2.2.1]-heptane-2-carboxylic acid (BCH) serve as inhibitors for the “A”, “L” transport systems, respectively.

[1] = test system: MDA MB468 Human Breast carcinoma cells; experiment: in vitro amino acid uptake in MDA MB468 cells; format: cell-based
Description: Compounds have been evaluated in vitro for tumor binding specificity (i.e. uptake cells) using a variety of tumor cell lines available in the art, along with reference compounds such as Me-AlB and BCH. Detailed description of these assays can be found in Martarello et al. (2002) Journal of Medicinal Chemistry, 45:2250-2259 and McConathy et al. (2003) Nuclear Medicine and Biology, 30:477-490. These so called “amino acid uptake studies” are typically carried out with radiolabeled compounds in at least five phenotypically different human tumor cell lines (e.g., A549 lung carcinoma, MB468 breast carcinoma, DU145 prostate carcinoma-androgen independent, LnCap-androgen dependent, SKOV3 ovarian carcinoma, U87 glial blastoma, MIA PaCa-2 pancreas carcinoma, MDA MB231 breast carcinoma). These tumor cell lines can be grown either in vitro or in vivo with severe combined immunodeficiency (SCID) mice as a host. The afore-mentioned tumor cell lines are available at the Winship Cancer Institute of Emory University.
For the in vitro amino acid uptake studies, all cells can be grown to monolayer confluency in T-175 culture flasks [Corning, Corning, N.Y.] (approx. 1×10^8 cells/flask) in Dulbecco's Modified Eagle's Medium (DMEM) [Sigma, St. Louis, Mo.] in a humidified incubator (37° C., 5% CO2/95% air). […]
In the in vitro studies the uptake rate of each amino acid compound is measured in each tumor line, as well as the dominant transport mechanisms of each tumor cell line. After trypsinization, cells are resuspended in serum-free media, then counted on a hemocytometer, with viability assessed through Trypan blue staining. […] The vials are placed in a Cobra-II gamma counter (Packard, Meriden, Conn.), with the activity per cell number determined. […] Saline washes are performed as described above, and the filtered cells' radioactivity determined on the gamma counter. […]
The uptake of all compounds were measured in human and rat cancer cell lines and the dominant transport (“A” and “L”) mechanism of each culture were determined. […]

[2] = test system: A549, human lung cancer cells implanted in flanks; experiment: tissue distribution in SCID mice bearing A549 tumors; format: in vivo; conditions: for tissue distribution, blood / tissue distribution, bone / tissue distribution, brain / tissue distribution, heart / tissue distribution, kidney / tissue distribution, liver / tissue distribution, lung / tissue distribution, muscle / tissue distribution, pancreas / tissue distribution, spleen / tissue distribution, tumor: A549 tumor-bearing SCID mice, tail vein, ave
Protocol: For the in vitro amino acid uptake studies, all cells can be grown to monolayer confluency in T-175 culture flasks [Corning, Corning, N.Y.] (approx. 1×10^8 cells/flask) in Dulbecco's Modified Eagle's Medium (DMEM) [Sigma, St. Louis, Mo.] in a humidified incubator (37° C., 5% CO2/95% air). Media are supplemented with 10% fetal calf serum [Hyclone, Logan, Utah], and antibiotics (10,000 U/ml penicillin and 10 mg/ml streptomycin) (Sigma, St. Louis, Mo.). For tissue culture passage, monolayer cells are detached by gentle trypsinization, resuspended in complete media, and split 1:10 into new T-flasks. Cultures are passaged weekly, and fed fresh media every 2 to 3 days. To initiate tumor growth in SCID mice, 1×10^6 cells are injected s.c. bilaterally into the flanks (inguinal region) of the recipient animals using a 1 ml syringe with a 27 gauge needle. Ex vivo experiments can be performed with animals containing tumors weighing between 500 mg and 1 g, as estimated by caliper measurement (tumor weight=(π/6)*abc, where a, b and c are the tumor length, width and height, respectively).
Tissue distribution of the compounds is measured in SCID mice (average weight, 20-25 g) bearing human tumors as follows. The candidate radioligands (20 uCi in 0.4 ml 0.9% NaCl) are injected into the tail vein of tumor-bearing mice. […] Tissues (blood, heart, liver, lungs, kidneys, bone, thyroid, muscle, brain and tumor) are excised, rinsed in saline, and blotted dry. The tissues are weighed, placed into 12×75 mm glass vials, the radioactivity determined with a gamma counter, and the percent dose/gram calculated. Total activities of blood and muscle are calculated by assuming that they account for 7% and 40% of the total body mass, respectively.
Tables 3-7 show the results of the biodistribution studies with the separate enantiomers of anti-2-[^18F]FACPC and racemic anti-2-[^18F]FACBC as a comparison in SCiD mice implanted in their flanks with A549, human lung cancer cells and DU145, human prostate cancer cells.

[3] = A549 cells implanted subcutaneously in flanks of SCID mice
[4] = 15 min, listed as Anti-2-[^18F]FACPC Enantiomer 1
[5] = 60 min, listed as Anti-2-[^18F]FACPC Enantiomer 1

N[C@]1(C(=O)O)CCC[C@@H]1[18F] (single isomer, unassigned; enantiomer 1) [Enantiomer 1, anti-2-[^18F]FACPC]
selective uptake in tumor cells (tumor cells): selectively taken up in tumor cells | in vitro uptake in cancer cells compared with enantiomer 2 (tumor cells; in vitro in cancer cells): greater uptake than enantiomer 2 | % Dose uptake per 0.5 × 10−6 Cells [1]: 15 % Dose/0.5 × 10^−6 | in vivo uptake compared with enantiomer 2 [2, 3]: greater uptake than enantiomer 2 | in vivo uptake compared with racemic 2-[^18F]FACBC [2, 3]: significantly higher in vivo uptake than racemic 2-[^18F]FACBC | tissue distribution, blood [2, 4]: 3.98 percent dose/gram | tissue distribution, bone [2, 4]: 3.08 percent dose/gram | tissue distribution, brain [2, 4]: 0.81 percent dose/gram | tissue distribution, heart [2, 4]: 3.78 percent dose/gram | tissue distribution, kidney [2, 4]: 8.0 percent dose/gram | tissue distribution, liver [2, 4]: 4.01 percent dose/gram | tissue distribution, lung [2, 4]: 4.09 percent dose/gram | tissue distribution, muscle [2, 4]: 2.47 percent dose/gram | tissue distribution, pancreas [2, 4]: 57.83 percent dose/gram | tissue distribution, spleen [2, 4]: 12.52 percent dose/gram | tissue distribution, tumor [2, 4]: 9.77 percent dose/gram | tissue distribution, blood [2, 5]: 1.59 percent dose/gram | tissue distribution, bone [2, 5]: 2.43 percent dose/gram | tissue distribution, brain [2, 5]: 0.81 percent dose/gram | tissue distribution, heart [2, 5]: 2.49 percent dose/gram | tissue distribution, kidney [2, 5]: 4.02 percent dose/gram | tissue distribution, liver [2, 5]: 2.16 percent dose/gram | tissue distribution, lung [2, 5]: 2.07 percent dose/gram | tissue distribution, muscle [2, 5]: 2.43 percent dose/gram | tissue distribution, pancreas [2, 5]: 27.09 percent dose/gram | tissue distribution, spleen [2, 5]: 4.13 percent dose/gram | tissue distribution, tumor [2, 5]: 7.16 percent dose/gram

NC1(C(=O)O)CCC1[18F] (racemic) [racemic anti-2-[^18F]FACBC]
selective uptake in tumor cells (tumor cells): selectively taken up in tumor cells | % Dose uptake per 0.5 × 10−6 Cells [1]: 7.4 % Dose/0.5 × 10^−6 | tissue distribution, blood ([2]; 15 min): 3.39 percent dose/gram | tissue distribution, bone ([2]; 15 min): 2.07 percent dose/gram | tissue distribution, brain ([2]; 15 min): 0.27 percent dose/gram | tissue distribution, heart ([2]; 15 min): 2.71 percent dose/gram | tissue distribution, kidney ([2]; 15 min): 10.12 percent dose/gram | tissue distribution, liver ([2]; 15 min): 3.15 percent dose/gram | tissue distribution, lung ([2]; 15 min): 4.23 percent dose/gram | tissue distribution, muscle ([2]; 15 min): 1.38 percent dose/gram | tissue distribution, pancreas ([2]; 15 min): 48.45 percent dose/gram | tissue distribution, spleen ([2]; 15 min): 7.91 percent dose/gram | tissue distribution, tumor ([2]; 15 min): 5.11 percent dose/gram | tissue distribution, blood ([2]; 30 min): 2.43 percent dose/gram | tissue distribution, bone ([2]; 30 min): 1.64 percent dose/gram | tissue distribution, brain ([2]; 30 min): 0.26 percent dose/gram | tissue distribution, heart ([2]; 30 min): 2.24 percent dose/gram | tissue distribution, kidney ([2]; 30 min): 5.48 percent dose/gram | tissue distribution, liver ([2]; 30 min): 2.70 percent dose/gram | tissue distribution, lung ([2]; 30 min): 3.03 percent dose/gram | tissue distribution, muscle ([2]; 30 min): 1.44 percent dose/gram | tissue distribution, pancreas ([2]; 30 min): 44.17 percent dose/gram | tissue distribution, spleen ([2]; 30 min): 5.03 percent dose/gram | tissue distribution, tumor ([2]; 30 min): 4.29 percent dose/gram | tissue distribution, blood ([2]; 60 min): 1.09 percent dose/gram | tissue distribution, bone ([2]; 60 min): 1.02 percent dose/gram | tissue distribution, brain ([2]; 60 min): 0.16 percent dose/gram | tissue distribution, heart ([2]; 60 min): 1.41 percent dose/gram | tissue distribution, kidney ([2]; 60 min): 2.25 percent dose/gram | tissue distribution, liver ([2]; 60 min): 1.47 percent dose/gram | tissue distribution, lung ([2]; 60 min): 1.40 percent dose/gram | tissue distribution, muscle ([2]; 60 min): 0.90 percent dose/gram | tissue distribution, pancreas ([2]; 60 min): 20.64 percent dose/gram | tissue distribution, spleen ([2]; 60 min): 2.86 percent dose/gram | tissue distribution, tumor ([2]; 60 min): 3.04 percent dose/gram | tissue distribution, blood ([2]; 120 min): 0.41 percent dose/gram | tissue distribution, bone ([2]; 120 min): 0.62 percent dose/gram | tissue distribution, brain ([2]; 120 min): 0.15 percent dose/gram | tissue distribution, heart ([2]; 120 min): 0.86 percent dose/gram | tissue distribution, kidney ([2]; 120 min): 1.03 percent dose/gram | tissue distribution, liver ([2]; 120 min): 0.59 percent dose/gram | tissue distribution, lung ([2]; 120 min): 0.56 percent dose/gram | tissue distribution, muscle ([2]; 120 min): 0.77 percent dose/gram | tissue distribution, pancreas ([2]; 120 min): 9.80 percent dose/gram | tissue distribution, spleen ([2]; 120 min): 1.48 percent dose/gram | tissue distribution, tumor ([2]; 120 min): 2.30 percent dose/gram | uptake of radioactivity in the tumors compared with muscle ([2]; A549 tumors, SCID mice, time points sampled post injection): greater than muscle
